Tests used:
[1] = molecular target: T1, Protein deacetylase HDAC6 (Homo sapiens, UniProt Q9UBN7); experiment: Inhibition of HDAC6 (unknown origin) using fluorogenic peptide RHKKAc-AMC as substrate by fluorescence-based assay
T1 sequence (Q9UBN7 whole entry): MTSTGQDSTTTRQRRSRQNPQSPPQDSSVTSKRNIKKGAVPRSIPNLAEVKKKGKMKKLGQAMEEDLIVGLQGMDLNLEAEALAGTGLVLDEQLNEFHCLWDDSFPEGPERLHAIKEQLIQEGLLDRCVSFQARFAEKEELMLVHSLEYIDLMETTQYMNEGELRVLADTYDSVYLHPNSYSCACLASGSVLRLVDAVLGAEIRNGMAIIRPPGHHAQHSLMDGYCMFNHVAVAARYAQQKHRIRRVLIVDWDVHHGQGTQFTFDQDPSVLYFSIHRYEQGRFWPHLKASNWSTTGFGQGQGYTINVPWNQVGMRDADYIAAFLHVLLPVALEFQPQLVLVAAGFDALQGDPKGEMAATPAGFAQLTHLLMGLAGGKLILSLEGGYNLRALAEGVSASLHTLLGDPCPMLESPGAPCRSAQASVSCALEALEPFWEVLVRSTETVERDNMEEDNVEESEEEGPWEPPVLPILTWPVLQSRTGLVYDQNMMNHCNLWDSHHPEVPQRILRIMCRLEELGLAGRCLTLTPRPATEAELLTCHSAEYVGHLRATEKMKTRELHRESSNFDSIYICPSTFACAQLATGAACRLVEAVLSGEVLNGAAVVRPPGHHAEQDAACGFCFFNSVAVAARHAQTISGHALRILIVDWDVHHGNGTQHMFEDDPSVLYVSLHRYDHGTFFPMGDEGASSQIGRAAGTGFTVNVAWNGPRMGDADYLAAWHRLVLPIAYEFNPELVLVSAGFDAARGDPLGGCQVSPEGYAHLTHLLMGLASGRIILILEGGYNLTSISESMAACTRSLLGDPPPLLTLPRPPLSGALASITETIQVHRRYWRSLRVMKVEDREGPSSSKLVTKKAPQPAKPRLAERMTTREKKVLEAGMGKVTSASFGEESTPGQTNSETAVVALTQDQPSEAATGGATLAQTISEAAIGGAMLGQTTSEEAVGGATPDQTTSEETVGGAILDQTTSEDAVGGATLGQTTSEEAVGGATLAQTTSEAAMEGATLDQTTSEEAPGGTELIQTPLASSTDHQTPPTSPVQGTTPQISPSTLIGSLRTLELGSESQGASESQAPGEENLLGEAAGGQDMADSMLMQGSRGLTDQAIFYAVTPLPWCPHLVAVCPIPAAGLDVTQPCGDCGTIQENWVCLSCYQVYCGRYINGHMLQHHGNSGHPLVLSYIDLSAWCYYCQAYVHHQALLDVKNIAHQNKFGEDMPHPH

PC-12 [2] = experiment: Neuroprotective activity in rat PC-12 cells assessed as increase in NGF-mediated neurite outgrowth at 3 uM incubated for 48 hrs by phase contrast microscopic analysis; format: functional
Histone deacetylase 1 = Histone deacetylase 1 (Homo sapiens, UniProt Q13547); experiment: Inhibition of HDAC1 (unknown origin) using fluorogenic peptide RHKKAc-AMC as substrate by fluorescence-based assay
Homo sapiens = organism: Homo sapiens; experiment: Selectivity index, ratio of IC50 for inhibition of HDAC1 (unknown origin) to IC50 for inhibition of HDAC6 (unknown origin)
PC-12 [3] = experiment: Neuroprotective activity against H202-induced oxidative damage in rat PC-12 cells assessed as increase in cell viability at 1 to 10 uM; format: functional, cell-based; conditions: dose 1-10 µM
PC-12 [4] = experiment: Neuroprotective activity in rat PC-12 cells assessed as increase in NGF-mediated neurite outgrowth at 10 uM incubated for 48 hrs by phase contrast microscopic analysis; format: functional
Histone deacetylase 2 = Histone deacetylase 2 (Homo sapiens, UniProt Q92769); experiment: Inhibition of HDAC2 (unknown origin) using fluorogenic peptide RHKKAc-AMC as substrate by fluorescence-based assay
Histone deacetylase 5 = Histone deacetylase 5 (Homo sapiens, UniProt Q9UQL6); experiment: Inhibition of HDAC5 (unknown origin) using trifluoroacetyl lysine as substrate by fluorescence-based assay
PC-12 [5] = experiment: Cytotoxicity against rat PC-12 cells assessed as reduction in cell viability at 10 uM; format: toxicity, cell-based; conditions: pc-12, 10 µM
PC-12 [6] = experiment: Neuroprotective activity in rat PC-12 cells assessed as increase in NGF-mediated neurite outgrowth at 1 to 10 uM incubated for 48 hrs by phase contrast microscopic analysis; format: functional, cell-based; conditions: dose 1-10 µM
PC-12 [7] = experiment: Neuroprotective activity against H202-induced oxidative damage in rat PC-12 cells assessed as increase in cell viability at 10 uM; format: functional
Histone deacetylase 3 = Histone deacetylase 3 (Homo sapiens, UniProt O15379); experiment: Inhibition of HDAC3 (unknown origin) using fluorogenic peptide RHKKAc-AMC as substrate by fluorescence-based assay
Chain of Histone deacetylase 3 (O15379 whole entry): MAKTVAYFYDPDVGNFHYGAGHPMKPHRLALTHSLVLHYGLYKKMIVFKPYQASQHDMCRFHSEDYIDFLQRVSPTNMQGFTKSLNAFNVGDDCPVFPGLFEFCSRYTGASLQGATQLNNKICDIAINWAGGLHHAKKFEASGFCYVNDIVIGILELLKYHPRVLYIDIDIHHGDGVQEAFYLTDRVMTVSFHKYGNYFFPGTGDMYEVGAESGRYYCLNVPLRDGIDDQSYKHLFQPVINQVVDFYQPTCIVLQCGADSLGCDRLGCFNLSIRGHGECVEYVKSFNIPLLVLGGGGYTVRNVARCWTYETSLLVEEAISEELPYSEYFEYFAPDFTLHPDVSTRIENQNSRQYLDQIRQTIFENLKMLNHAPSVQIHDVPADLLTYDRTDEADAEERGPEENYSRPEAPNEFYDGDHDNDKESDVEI

Chain of Histone deacetylase 1 (Q13547 whole entry): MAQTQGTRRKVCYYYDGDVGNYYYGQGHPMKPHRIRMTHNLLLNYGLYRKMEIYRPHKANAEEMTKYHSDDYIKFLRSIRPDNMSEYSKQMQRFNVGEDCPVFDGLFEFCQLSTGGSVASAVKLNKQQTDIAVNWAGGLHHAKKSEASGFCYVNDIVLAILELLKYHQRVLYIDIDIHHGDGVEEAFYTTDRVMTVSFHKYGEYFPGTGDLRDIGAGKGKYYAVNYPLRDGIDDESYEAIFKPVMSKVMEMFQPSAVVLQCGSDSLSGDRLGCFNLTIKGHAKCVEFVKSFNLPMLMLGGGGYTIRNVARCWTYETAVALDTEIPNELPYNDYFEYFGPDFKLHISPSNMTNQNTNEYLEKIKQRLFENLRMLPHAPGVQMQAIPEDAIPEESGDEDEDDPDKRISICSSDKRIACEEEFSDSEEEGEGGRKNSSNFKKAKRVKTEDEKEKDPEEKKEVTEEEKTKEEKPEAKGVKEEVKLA
Chain of Histone deacetylase 2 (Q92769 whole entry): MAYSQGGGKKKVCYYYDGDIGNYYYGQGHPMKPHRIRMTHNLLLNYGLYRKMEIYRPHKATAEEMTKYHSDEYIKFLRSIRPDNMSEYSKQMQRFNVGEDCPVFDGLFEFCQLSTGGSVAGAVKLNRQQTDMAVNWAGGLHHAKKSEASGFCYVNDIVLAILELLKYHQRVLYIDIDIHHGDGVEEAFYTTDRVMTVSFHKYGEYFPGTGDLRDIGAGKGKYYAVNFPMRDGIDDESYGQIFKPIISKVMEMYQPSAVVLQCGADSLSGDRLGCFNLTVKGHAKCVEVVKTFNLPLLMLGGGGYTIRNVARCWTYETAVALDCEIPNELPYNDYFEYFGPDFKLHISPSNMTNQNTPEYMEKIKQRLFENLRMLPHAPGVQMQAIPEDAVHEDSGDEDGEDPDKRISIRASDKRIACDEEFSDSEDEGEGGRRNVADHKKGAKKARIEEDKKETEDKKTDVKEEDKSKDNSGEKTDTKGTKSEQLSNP
Chain of Histone deacetylase 5 (Q9UQL6 whole entry): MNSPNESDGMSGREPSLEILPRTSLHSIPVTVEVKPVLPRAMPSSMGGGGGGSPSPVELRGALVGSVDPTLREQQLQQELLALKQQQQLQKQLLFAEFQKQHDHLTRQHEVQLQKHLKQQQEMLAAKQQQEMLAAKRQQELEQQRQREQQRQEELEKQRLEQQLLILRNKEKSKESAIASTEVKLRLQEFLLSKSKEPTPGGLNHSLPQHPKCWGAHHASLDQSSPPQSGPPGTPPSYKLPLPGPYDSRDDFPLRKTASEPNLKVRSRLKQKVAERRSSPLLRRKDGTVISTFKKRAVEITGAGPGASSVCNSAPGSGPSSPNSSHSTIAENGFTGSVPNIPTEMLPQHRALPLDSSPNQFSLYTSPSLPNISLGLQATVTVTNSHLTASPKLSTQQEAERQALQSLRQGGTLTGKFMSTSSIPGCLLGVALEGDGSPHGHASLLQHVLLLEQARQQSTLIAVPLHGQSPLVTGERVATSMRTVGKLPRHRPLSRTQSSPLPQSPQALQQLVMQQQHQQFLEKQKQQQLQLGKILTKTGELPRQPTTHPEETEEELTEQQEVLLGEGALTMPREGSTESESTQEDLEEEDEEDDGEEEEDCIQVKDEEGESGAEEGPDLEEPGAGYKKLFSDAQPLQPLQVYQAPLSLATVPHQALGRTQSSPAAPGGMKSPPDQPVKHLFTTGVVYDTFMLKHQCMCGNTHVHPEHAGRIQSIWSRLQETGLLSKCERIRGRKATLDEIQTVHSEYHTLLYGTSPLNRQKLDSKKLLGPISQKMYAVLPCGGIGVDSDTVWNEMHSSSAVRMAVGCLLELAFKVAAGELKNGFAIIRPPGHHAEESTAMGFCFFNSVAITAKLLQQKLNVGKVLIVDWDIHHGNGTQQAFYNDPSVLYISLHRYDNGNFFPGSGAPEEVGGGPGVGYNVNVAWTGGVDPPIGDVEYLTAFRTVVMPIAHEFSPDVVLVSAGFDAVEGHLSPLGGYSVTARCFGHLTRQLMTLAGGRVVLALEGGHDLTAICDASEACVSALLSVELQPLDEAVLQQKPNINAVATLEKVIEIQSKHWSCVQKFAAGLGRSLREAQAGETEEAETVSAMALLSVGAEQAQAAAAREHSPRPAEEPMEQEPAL

Structure (SMILES) | IC50 [1] [nM] | Activity (PC-12 [2]) [%] | IC50 (Histone deacetylase 1) [nM] | Ratio IC50 (Homo sapiens) | also measured
Cn1cc(C(=O)N2CCN(Cc3ccc(C(=O)NO)cc3)CC2)c2ccccc21 | 55.2 | 27.5 | 2180 | 39 | 
CN1C(=O)CN(Cc2ccc(C(=O)NO)cc2)C(=O)C1Cc1ccccc1 (centres undefined) |  | 12.3 |  |  | 
O=C(NO)c1ccc(CN2CCN(C(=O)c3cc4ccccc4[nH]3)CC2)cc1 | 88.5 |  |  |  | 
CN1CCc2c(c3ccccc3n2Cc2ccc(C(=O)NO)cc2)C1 |  |  |  |  | Activity (PC-12 [3]): Dose-Dependent Effect
C=CCN1C(=O)CN(Cc2ccc(C(=O)NO)cc2)C(=O)C1Cc1ccccc1 (centres undefined) |  | 12.3 |  |  | 
Cc1cccc2c(C(=O)N3CCN(Cc4ccc(C(=O)NO)cc4)CC3)c[nH]c12 | 13.6 | 34.7 | 1390 | 102 | Activity (PC-12 [4]): 12.3%; Activity (PC-12 [3]): Dose-Dependent Effect; IC50 (Histone deacetylase 2): 2250 nM; IC50 (Histone deacetylase 5): > 50000 nM; Activity (PC-12 [5]): 39.1%; Activity (PC-12 [6]): Dose-Dependent Effect; Activity (PC-12 [7]): 78.5%; IC50 (Histone deacetylase 3): 1850 nM
O=C(NO)c1ccc(CN2CCN(C(=O)c3c[nH]c4cc(F)ccc34)CC2)cc1 | 14 | 12.3 | 1190 | 85 | 
O=C(NO)c1ccc(CN2CCN(C(=O)c3c[nH]c4ccccc34)CC2)cc1 | 14.4 | 12.3 | 1260 | 87 | 
O=C(NO)c1ccc(CN2CCN(C(=O)c3c[nH]c4cc(OCc5ccccc5)ccc34)CC2)cc1 | 23.4 | 37.3 | 1050 | 45 | Activity (PC-12 [5]): Toxic; Activity (PC-12 [6]): Dose-Dependent Effect
O=C(NO)c1ccc(CN2CC(=O)N(Cc3ccccc3)C(Cc3ccccc3)C2=O)cc1 (centres undefined) |  | 12.3 |  |  | 
O=C1CN(Cc2ccc(C(=O)NO)cc2)C(=O)[C@@H](Cc2c[nH]c3ccccc23)N1 |  | 12.3 |  |  | 
O=C(NO)c1ccc(CN2CCN(C(=O)c3c[nH]c4ccc(Cl)cc34)CC2)cc1 | 26 | 12.3 | 1430 | 55 | 
O=C(NO)c1ccc(CN2CCN(C(=O)c3c[nH]c4cccc(Cc5ccccc5)c34)CC2)cc1 | 78.5 | 31.8 | > 50000 |  | Activity (PC-12 [6]): Dose-Dependent Effect

Source: ChEMBL document CHEMBL5236672, “Discovery of indole-piperazine derivatives as selective histone deacetylase 6 inhibitors with neurite outgrowth-promoting activities and neuroprotective activities” (Bioorg Med Chem Lett, 2023)
